Source: patent publication US20230040386A1, “URSODEOXYCHOLIC ACID-CONTAINING AGENT FOR TREATING OR PREVENTING PRESBYOPIA” (priority 2018, published 2023)

What was measured:
lens [1] = test: Pharmacological Test 3: lens elasticity after instillation of ursodeoxycholic acid (free form); type: in vivo, C57BL/6J mice; details: 2.5 μL/eye, 3 times per day, 12 to 15 days, vs vehicle control
Procedure: A vehicle comprising 0.1% (w/v) of ethyl pyruvate, 0.269% (w/v) of sodium dihydrogenphosphate monohydrate (NaH2PO4H2O), 0.433% (w/v) of disodium hydrogenphosphate (Na2HPO4), 0.2% (w/v) of hydroxypropyl methylcellulose, and 0.5% (w/v) of NaCl was prepared. Ursodeoxycholic acid was sonicated with the addition of the vehicle to prepare a 1.5% (w/v) suspension. The resulting 1.5% (w/v) suspension was diluted with the vehicle to prepare a 0.5% (w/v) suspension. Further, the resulting 0.5% (w/v) suspension was diluted with the vehicle to prepare a 0.15% (w/v) suspension. The total amount of each sample to be used in one day was prepared before use. EV06 was sonicated with the addition of the vehicle to prepare a 1.5% (w/v) solution. The total amount of the sample to be used in one day was prepared before use. 1) Each test sample (2.5 μL/eye) was instilled into the right eye of 8-month-old C57BL/6J mice with a Pipetman 3 times per day (around 9:00, 13:00 and 17:00) for 12 to 15 days. 2) After the final instillation, the mice were euthanized by carbon dioxide inhalation, and then the eyeballs were extracted and rinsed with Hank's balanced salt solution (HBSS). 3) The sclera near the optic nerve was cut with a razor, the lens was removed through the incision, and the removed lens was immersed in HBSS. 4) The lens was placed on a glass slide, and an all-in-one fluorescence microscope BZ-9000 (Keyence) was used to capture an image of the lens (Image a). 5) Next, one cover glass (Corning^(registered trade mark) 22×22 mm Square) was placed on the lens, and an image in which the thickness of the lens changed due to the weight was similarly captured (image b). 6) A change in the lens diameter was calculated from Equation 1 wherein the lens diameter of Image a is subtracted from the lens diameter of Image b, as described below. Then, the lens elasticity improvement of each sample group compared with the vehicle control group was calculated from Equation 2 described below. The mean of the vehicle control group was based on 5 eyes, the mean of each ursodeoxycholic acid sample group was based on 10 eyes, and the mean of the EV06 sample group was based on 10 eyes. Change in lens diameter=Lens diameter in Image b of each test sample−Lens diameter in Image a of each test sample (Equation 1) Lens elasticity improvement of each sample group=Mean change in lens diameter of each Test sample group−Mean change in lens diameter of Vehicle control group (Equation 2)

lens [2] = test: Pharmacological Test 4: lens elasticity, once-daily instillation of ursodeoxycholic acid for 2 weeks; type: in vivo, C57BL/6J mice; details: 14 days; for Lens elasticity improvement: vs vehicle control; for Lens elasticity improvement, in words: instilled once-daily, 1% and 3% ursodeoxycholic acid samples, 1.5% EV06 sample
Procedure: A vehicle comprising 0.1% (w/v) of ethyl pyruvate, 0.269% (w/v) of sodium dihydrogenphosphate monohydrate (NaH2PO4H2O), 0.433% (w/v) of disodium hydrogenphosphate (Na2HPO4), 0.2% (w/v) of hydroxypropyl methylcellulose, 0.5% (w/v) of NaCl was prepared. Ursodeoxycholic acid was sonicated with the addition of the vehicle to prepare a 3.0% (w/v) suspension. The resulting 3.0% (w/v) suspension was diluted with the vehicle to prepare a 1.0% (w/v) suspension. Further, the resulting 1.0% (w/v) suspension was diluted with the vehicle to prepare a 0.3% (w/v) suspension. The total amount of each sample to be used in one day was prepared before use. EV06 was sonicated with the addition of the vehicle to prepare a 1.5% (w/v) solution. The total amount of the sample to be used in one day was prepared before use. 1) Each test sample (2.5 μL/eye) was instilled into the right eye of 8-month-old C57BL/6J mice with a Pipetman once per day (QD; around 9:00), twice per day (BID; around 9:00 and 17:00), or 3 times per day (TID; around 9:00, 13:00 and 17:00) for 14 days. 2) After the final instillation, the mice were euthanized by carbon dioxide inhalation, and then the eyeballs were extracted and rinsed with Hank's balanced salt solution (HBSS). 3) The sclera near the optic nerve was cut with a razor, the lens was removed through the incision, and the removed lens was immersed in HBSS. 4) The lens was placed on a glass slide, and an all-in-one fluorescence microscope BZ-9000 ([…]) was used to capture an image of the lens (image a). 5) Next, one cover glass (Corning^(registered trade mark) 22×22 mm Square) was placed on the lens, and an image in which the thickness of the lens changed due to the weight was similarly captured (Image b). 6) A change in the lens diameter was calculated from Equation 1 wherein the lens diameter of Image a is subtracted from the lens diameter of Image b, as described below. Then, the lens elasticity improvement of each sample group compared with the vehicle control group was calculated from Equation 2 described below. The mean of the vehicle control group was based on 5 eyes, the mean of each ursodeoxycholic acid sample group was based on 10 eyes, and the mean of each EV06 sample group was based on 10 eyes. Change in lens diameter=Lens diameter in Image b of each test sample-Lens diameter in Image a of each test sample (Equation 1) Lens elasticity improvement of each sample group=Mean change in lens diameter of each Test sample group-Mean change in lens diameter of Vehicle control group (Equation 2)

## C[N+](C)(C)CCOC(=O)CCCC[C@@H]1CCSS1 [EV06, lipoic acid choline ester]
Lens [1]; 1.5% (w/v) sample
  Lens elasticity improvement: 42.5 μm
Lens [2]; 1.5% (w/v) sample, BID
  Lens elasticity improvement: 15.7 μm
Lens [2]; 1.5% (w/v) sample, QD
  Lens elasticity improvement: −3.6 μm
Lens [2]; 1.5% (w/v) sample, TID
  Lens elasticity improvement: 29.5 μm
Lens [2]
  Lens elasticity improvement, in words: no effect

## C[C@H](CCC(=O)O)[C@H]1CC[C@H]2[C@@H]3[C@@H](O)C[C@@H]4C[C@H](O)CC[C@]4(C)[C@H]3CC[C@]12C [ursodeoxycholic acid, 3α,7β-Dihydroxy-5β-cholan-24-oic acid]
Lens [1]; 0.15% (w/v) sample
  Lens elasticity improvement: 31.8 μm
Lens [1]; 0.5% (w/v) sample
  Lens elasticity improvement: 39.4 μm
Lens [1]; 1.5% (w/v) sample
  Lens elasticity improvement: 59.9 μm
Lens [2]; 0.3% (w/v) sample, QD
  Lens elasticity improvement: 2.8 μm
Lens [2]; 1% (w/v) sample, QD
  Lens elasticity improvement: 28.1 μm
Lens [2]; 3% (w/v) sample, QD
  Lens elasticity improvement: 30.4 μm
Lens [2]
  Lens elasticity improvement, in words: potent lens elasticity improvement
